Assay results reported in patent US20130053430A1, “MODULATION OF CETP EXPRESSION” (Isis Pharmaceuticals, Inc., priority 2010, published 2013).
Strand notation (5' to 3'): a small letter for the sugar, then the base; units joined by * are phosphorothioate-linked, units joined directly phosphodiester-linked; [ ] holds rarer units or linkages, { } end groups; capitals alone tell only the bases. e = 2'-O-(2-methoxyethyl) (MOE); [5mC] = 5-methylcytosine; d = 2'-deoxy (DNA)

What was measured:
human CETP mRNA [1] = assay: Antisense inhibition of human CETP mRNA in SW872 liposarcoma cells (Example 1); format: cell-based; conditions: 150 nM antisense oligonucleotide, lipofectin, ~24 hours, relative to untreated control cells
Description: Antisense oligonucleotides targeted to a CETP nucleic acid were tested for their effect on CETP mRNA transcript in vitro. Cultured SW872 liposarcoma cells at a density of 50,000 cells per well in a 24-well plate were transfected using lipofectin reagent with 150 nM antisense oligonucleotide. After approximately 24 hours, RNA was isolated from the cells and CETP mRNA levels were measured by quantitative real-time PCR. A human primer probe set (forward sequence […], designated herein as SEQ ID NO: 38; reverse sequence GGCTCACGCCTTTGCTGTT, designated herein as SEQ ID NO: 39; probe sequence […], designated herein as SEQ ID NO: 40) was used to quantitate CETP mRNA. CETP mRNA transcript levels were adjusted according to total RNA content, as measured by the house-keeping gene, GAPDH mRNA levels. GAPDH was measured using a primer probe set with the sequence as set forth in SEQ ID NOs: 10, 11, 13. Results are presented as percent inhibition of CETP, relative to untreated control cells.
The antisense oligonucleotides in Table 3 are 5-10-5 gapmers, where the gap segment comprises ten 2′-deoxynucleosides and each wing segment comprises five 2′-MOE nucleosides. Each nucleotide in the 5′ wing segment and each nucleotide in the 3′ wing segment has a 2′-MOE modification. The internucleoside linkages throughout each gapmer are phosphorothioate (P═S) linkages. All cytosine residues throughout each gapmer are 5-methylcytosines. ‘Target start site’ indicates the 5′-most nucleotide to which the antisense oligonucleotide is targeted. ‘Target stop site’ indicates the 3′-most nucleotide to which the antisense oligonucleotide is targeted. All the antisense oligonucleotides listed in Table 3 target human CETP mRNA, designated herein as SEQ ID NO: 1 (GENBANK Accession No. M30185.1).

human CETP mRNA [2] = assay: Antisense inhibition of human CETP mRNA in primary hepatocytes from huCETP transgenic mice (Example 4); format: cell-based, mouse; conditions: cytofectin, ~24 hours
Description: Transgenic mice expressing human CETP, controlled by its natural flanking region, increase expression of this gene in response to hypercholesterolemia (Jiang, X. C. et al., J. Clin. Invest. 1992. 90: 1290-1295). These mice were utilized for the following studies. Antisense oligonucleotides targeted to a CETP nucleic acid and described in Example 1 were tested for their effect on CETP mRNA transcript in vitro. Cultured primary hepatocytes from huCETP transgenic mice, at a density of 17,500 cells per well in a 96-well plate, were transfected using cytofectin reagent with 100 nM or 200 nM antisense oligonucleotide. After approximately 24 hours, RNA was isolated from the cells and CETP mRNA levels were measured by quantitative real-time PCR. CETP mRNA transcript levels were adjusted according to total RNA content, as measured by the house-keeping gene, GAPDH mRNA levels. Results are presented in Table 6 as percent inhibition of CETP, relative to untreated control cells.

[3] = Plasma cholesterol and triglyceride levels in huApoB/huCETP/mLDLr mouse model (Example 7); format: in vivo, mice; conditions: huApoB+/−huCETP+/−mLDLr+/− mice (Groups B-E), ASO 25 mg/kg s.c. twice/week
Description: The huApoB^+/−huCETP^+/−mLDLr^+/− mice were divided into five groups of 5-7 mice each. […] The saline-injected group served as the control group to which oligonucleotide-treated groups were compared. […] This group served a negative control for the effects of the antisense oligonucleotides against CETP. The groups are further described in Table 27, and are designated letters A-F, by which they will be referred from henceforth.
HDL and LDL cholesterol were individually measured by HPLC. Triglyceride levels were measured on weeks 0, 3 and 6 with the use of a commercially available triglyceride kit (DCL Triglyceride Reagent; Diagnostic Chemicals Ltd.).

Compound | % inhibition (human CETP mRNA [1]) | Percent inhibition of human CETP mRNA (human CETP mRNA [2]; 100 nM) | Percent inhibition of human CETP mRNA (human CETP mRNA [2]; 200 nM) | also measured
ISIS 349482: 5-10-5 MOE gapmer TGAAATGACCCTTGTGATGG (eT*eG*eA*eA*eA*dT*dG*dA*d[5mC]*d[5mC]*d[5mC]*dT*dT*dG*dT*eG*eA*eT*eG*eG) | 51% | 11% | 65% | –
ISIS 349447: 5-10-5 MOE gapmer TATGTATGTCCGCCCAGCCC (eT*eA*eT*eG*eT*dA*dT*dG*dT*d[5mC]*d[5mC]*dG*d[5mC]*d[5mC]*d[5mC]*eA*eG*e[5mC]*e[5mC]*e[5mC]) | 15% | 57% | 28% | –
ISIS 349459: 5-10-5 MOE gapmer CTTCTCGCCCGTGATATCTG (e[5mC]*eT*eT*e[5mC]*eT*d[5mC]*dG*d[5mC]*d[5mC]*d[5mC]*dG*dT*dG*dA*dT*eA*eT*e[5mC]*eT*eG) | 79% | 50% | 63% | –
ISIS 349516: 5-10-5 MOE gapmer CATCTCCGTACTCCTAACCC (e[5mC]*eA*eT*e[5mC]*eT*d[5mC]*d[5mC]*dG*dT*dA*d[5mC]*dT*d[5mC]*d[5mC]*dT*eA*eA*e[5mC]*e[5mC]*e[5mC]) | 65% | 78% | 86% | –
ISIS 349514: 5-10-5 MOE gapmer ACGCTGGAGGAGACACCAGG (eA*e[5mC]*eG*e[5mC]*eT*dG*dG*dA*dG*dG*dA*dG*dA*d[5mC]*dA*e[5mC]*e[5mC]*eA*eG*eG) | 71% | 84% | 92% | –
ISIS 349448: 5-10-5 MOE gapmer CCGTATATGTATGTCCGCCC (e[5mC]*e[5mC]*eG*eT*eA*dT*dA*dT*dG*dT*dA*dT*dG*dT*d[5mC]*e[5mC]*eG*e[5mC]*e[5mC]*e[5mC]) | 0% | 53% | 40% | –
O=C(O)c1cccnc1 [Nicotinic acid, nicotinic acid, reference compound] | – | – | – | % HDL/total cholesterol ([3]; Week 0): 23%; HDL cholesterol levels ([3]; Week 0): 45 mg/dL; LDL cholesterol levels ([3]; Week 0): 122 mg/dL; Total cholesterol levels ([3]; Week 0): 195 mg/dL; Triglyceride levels ([3]; Week 0): 134 mg/dL; % HDL/total cholesterol ([3]; Week 3): 34%; HDL cholesterol levels ([3]; Week 3): 57 mg/dL; LDL cholesterol levels ([3]; Week 3): 102 mg/dL; Total cholesterol levels ([3]; Week 3): 169 mg/dL; Triglyceride levels ([3]; Week 3): 108 mg/dL; % HDL/total cholesterol ([3]; Week 6): 39%; HDL cholesterol levels ([3]; Week 6): 65 mg/dL; LDL cholesterol levels ([3]; Week 6): 102 mg/dL; Total cholesterol levels ([3]; Week 6): 170 mg/dL; Triglyceride levels ([3]; Week 6): 138 mg/dL
ISIS 349452: 5-10-5 MOE gapmer CAGGACTGTGGCAGCCAGCA (e[5mC]*eA*eG*eG*eA*d[5mC]*dT*dG*dT*dG*dG*d[5mC]*dA*dG*d[5mC]*e[5mC]*eA*eG*e[5mC]*eA) | 75% | 60% | 51% | –
ISIS 349510: 5-10-5 MOE gapmer TCTAGCTCAAGCTCTGGAGG (eT*e[5mC]*eT*eA*eG*d[5mC]*dT*d[5mC]*dA*dA*dG*d[5mC]*dT*d[5mC]*dT*eG*eG*eA*eG*eG) | 64% | 65% | 88% | –
ISIS 349497: 5-10-5 MOE gapmer CCTCTTCAAATGTGTAAGCT (e[5mC]*e[5mC]*eT*e[5mC]*eT*dT*d[5mC]*dA*dA*dA*dT*dG*dT*dG*dT*eA*eA*eG*e[5mC]*eT) | 78% | 71% | 79% | –
ISIS 349444: 5-10-5 MOE gapmer TCCTGGCCCCAGAGATTCAC (eT*e[5mC]*e[5mC]*eT*eG*dG*d[5mC]*d[5mC]*d[5mC]*d[5mC]*dA*dG*dA*dG*dA*eT*eT*e[5mC]*eA*e[5mC]) | 20% | 59% | 0% | –
ISIS 349495: 5-10-5 MOE gapmer AGGAATTTCACCATCACTGA (eA*eG*eG*eA*eA*dT*dT*dT*d[5mC]*dA*d[5mC]*d[5mC]*dA*dT*d[5mC]*eA*e[5mC]*eT*eG*eA) | 58% | 61% | 74% | –
ISIS 349449: 5-10-5 MOE gapmer CGAGCCGTTCAGCCTGGAGC (e[5mC]*eG*eA*eG*e[5mC]*d[5mC]*dG*dT*dT*d[5mC]*dA*dG*d[5mC]*d[5mC]*dT*eG*eG*eA*eG*e[5mC]) | 28% | 68% | 63% | –
ISIS 349489: 5-10-5 MOE gapmer GTTGAAGCCCCAGGTCTCCA (eG*eT*eT*eG*eA*dA*dG*d[5mC]*d[5mC]*d[5mC]*d[5mC]*dA*dG*dG*dT*e[5mC]*eT*e[5mC]*e[5mC]*eA) | 48% | 47% | 67% | –
ISIS 349468: 5-10-5 MOE gapmer TCAATACCCAGCCACCAGGC (eT*e[5mC]*eA*eA*eT*dA*d[5mC]*d[5mC]*d[5mC]*dA*dG*d[5mC]*d[5mC]*dA*d[5mC]*e[5mC]*eA*eG*eG*e[5mC]) | 33% | 53% | 50% | –
ISIS 349501: 5-10-5 MOE gapmer GCTGCTCTCAGTCAAGTTGG (eG*e[5mC]*eT*eG*e[5mC]*dT*d[5mC]*dT*d[5mC]*dA*dG*dT*d[5mC]*dA*dA*eG*eT*eT*eG*eG) | 67% | 54% | 45% | –
ISIS 349500: 5-10-5 MOE gapmer ACAGTCTTTGGTGTAATCTG (eA*e[5mC]*eA*eG*eT*d[5mC]*dT*dT*dT*dG*dG*dT*dG*dT*dA*eA*eT*e[5mC]*eT*eG) | 72% | 41% | 77% | –
ISIS 349455: 5-10-5 MOE gapmer CGATGCCTGCCTCGTGCGAG (e[5mC]*eG*eA*eT*eG*d[5mC]*d[5mC]*dT*dG*d[5mC]*d[5mC]*dT*d[5mC]*dG*dT*eG*e[5mC]*eG*eA*eG) | 35% | 25% | 17% | –
ISIS 349505: 5-10-5 MOE gapmer CACTACCTCGAGCCGAGACA (e[5mC]*eA*e[5mC]*eT*eA*d[5mC]*d[5mC]*dT*d[5mC]*dG*dA*dG*d[5mC]*d[5mC]*dG*eA*eG*eA*e[5mC]*eA) | 55% | 98% | 99% | –
ISIS 349451: 5-10-5 MOE gapmer GCAGCCAGCATGGTTATCAG (eG*e[5mC]*eA*eG*e[5mC]*d[5mC]*dA*dG*d[5mC]*dA*dT*dG*dG*dT*dT*eA*eT*e[5mC]*eA*eG) | 23% | 42% | 54% | –
ISIS 349453: 5-10-5 MOE gapmer GCATTGCCCAGCAGGGCCAG (eG*e[5mC]*eA*eT*eT*dG*d[5mC]*d[5mC]*d[5mC]*dA*dG*d[5mC]*dA*dG*dG*eG*e[5mC]*e[5mC]*eA*eG) | 45% | 2% | 26% | –
ISIS 133837: 5-10-5 MOE gapmer TCCACCAGCAGGTGCTCAGG (eT*e[5mC]*e[5mC]*eA*e[5mC]*d[5mC]*dA*dG*d[5mC]*dA*dG*dG*dT*dG*d[5mC]*eT*e[5mC]*eA*eG*eG) | 70% | – | – | –
